Test results reported in the NIST ThermoML archive (doi:10.1021/je800999s).

Assay: molar heat capacity at constant pressure; xn = mol fraction of the nth substance listed
Details: 101 kPa, Liquid, Large sample (1 g) DSC

O=S1(=O)CCCC1 [sulfolane] + O
molar heat capacity at constant pressure [J/K/mol]
Details | x1 = 0.0999 | x1 = 0.1998 | x1 = 0.2987 | x1 = 0.3995 | x1 = 0.4945 | x1 = 0.5987 | x1 = 0.6984 | x1 = 0.7904 | x1 = 0.8865 | x1 = 1
303.15 K | 87 | 100 | 112 | 124 | 135 | 145 | 155 | 164 | 173 | 182
308.15 K | 88 | 100 | 113 | 125 | 136 | 147 | 156 | 166 | 175 | 184
313.15 K | 88 | 101 | 114 | 126 | 137 | 148 | 157 | 167 | 176 | 185
318.15 K | 88 | 102 | 114 | 127 | 138 | 149 | 159 | 168 | 177 | 186
323.15 K | 89 | 102 | 115 | 128 | 139 | 150 | 160 | 170 | 179 | 188
328.15 K | 89 | 103 | 116 | 129 | 141 | 152 | 162 | 172 | 181 | 189
333.15 K | 89 | 104 | 117 | 130 | 142 | 153 | 164 | 173 | 183 | 191
338.15 K | 90 | 104 | 118 | 131 | 143 | 155 | 165 | 175 | 184 | 193
343.15 K | 90 | 105 | 119 | 132 | 144 | 156 | 167 | 177 | 186 | 194
348.15 K | 91 | 106 | 120 | 133 | 146 | 158 | 169 | 179 | 188 | 197
353.15 K | 91 | 107 | 121 | 135 | 148 | 160 | 171 | 181 | 191 | 199
